Measured values as given in ChEMBL document CHEMBL5634194, “Novel Myeloperoxidase Inhibitors for Treating Multiple Diseases” (ACS Med Chem Lett, 2024).
pIC50: −log10 of the molar value.

molecular target: T1, Myeloperoxidase (Homo sapiens, UniProt P05164); experiment: Inhibition of human MPO using H2O2 as substrate measured after 15 mins by chemiluminescence based assay
T1 sequence (P05164 whole entry): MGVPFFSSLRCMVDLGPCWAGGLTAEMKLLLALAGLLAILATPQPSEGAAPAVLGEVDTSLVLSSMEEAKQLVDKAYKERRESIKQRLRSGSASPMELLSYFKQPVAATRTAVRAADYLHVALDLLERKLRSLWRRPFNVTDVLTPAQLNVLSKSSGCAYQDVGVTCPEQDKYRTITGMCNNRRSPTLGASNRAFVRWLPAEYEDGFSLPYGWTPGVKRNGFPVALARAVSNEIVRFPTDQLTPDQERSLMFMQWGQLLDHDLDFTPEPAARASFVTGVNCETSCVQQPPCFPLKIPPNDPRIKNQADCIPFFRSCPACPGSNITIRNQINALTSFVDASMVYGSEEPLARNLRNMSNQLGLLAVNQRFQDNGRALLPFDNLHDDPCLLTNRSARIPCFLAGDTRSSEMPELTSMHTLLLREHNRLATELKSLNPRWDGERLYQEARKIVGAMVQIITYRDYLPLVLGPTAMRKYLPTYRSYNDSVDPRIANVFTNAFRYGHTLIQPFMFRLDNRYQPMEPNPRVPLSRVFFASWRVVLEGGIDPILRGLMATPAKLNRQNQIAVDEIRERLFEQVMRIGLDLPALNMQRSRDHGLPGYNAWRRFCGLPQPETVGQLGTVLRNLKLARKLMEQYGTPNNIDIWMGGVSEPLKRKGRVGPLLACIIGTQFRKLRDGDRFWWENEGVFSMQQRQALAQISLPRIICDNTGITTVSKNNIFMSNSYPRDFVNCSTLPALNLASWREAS

Compound | pIC50
O=c1[nH]c(=S)n(Cc2ccccc2[C@@H]2C[C@H](C(F)F)CCN2)c2cc[nH]c12 | 9.00
O=c1[nH]c(=S)n(Cc2ccccc2[C@H]2C[C@H](C(F)(F)F)CCN2)c2nc[nH]c12 | 8.52
O=c1[nH]c(=S)n(Cc2ccccc2[C@@H]2CC(F)(F)CCN2)c2cc[nH]c12 | 8.52
O=c1[nH]c(=S)n(Cc2ccccc2[C@@H]2CCCCN2)c2cc[nH]c12 | 8.70
O=c1[nH]c(=S)n(Cc2ccccc2[C@@H]2C[C@H](C(F)(F)F)CCN2)c2nc[nH]c12 | 8.70
O=c1[nH]c(=S)n(Cc2ccccc2[C@H]2C[C@@H](C(F)(F)F)CCN2)c2cc[nH]c12 | 8.70
